Laboratory results from US12577231B2, “Androgen receptor PROTACS” (GlaxoSmithKline Intellectual Property Development Limited, priority 2023, dated 2026).

target: T1, Androgen Receptor protein in human LnCaP cells (Homo sapiens, UniProt P10275, T878A); assay: Androgen Receptor Degradation Assay (Nano-Glo HiBiT, LnCaP cells); assay type: cell-based; settings: 18 h, HiBiT-tagged AR LnCaP cells, 18 h incubation, fitted curve asymptote maximum of degradation, read-out: mean asymptote max
T1 construct: the AR gene was modified, using CRISPR/Cas9 editing, so the expressed AR protein included an 11 amino acid HiBiT tag; endogenous in cells; host or cells: clonal LnCaP derived cell line, endogenous AR gene edited by CRISPR/Cas9
T1 sequence (P10275 1-920 T878A): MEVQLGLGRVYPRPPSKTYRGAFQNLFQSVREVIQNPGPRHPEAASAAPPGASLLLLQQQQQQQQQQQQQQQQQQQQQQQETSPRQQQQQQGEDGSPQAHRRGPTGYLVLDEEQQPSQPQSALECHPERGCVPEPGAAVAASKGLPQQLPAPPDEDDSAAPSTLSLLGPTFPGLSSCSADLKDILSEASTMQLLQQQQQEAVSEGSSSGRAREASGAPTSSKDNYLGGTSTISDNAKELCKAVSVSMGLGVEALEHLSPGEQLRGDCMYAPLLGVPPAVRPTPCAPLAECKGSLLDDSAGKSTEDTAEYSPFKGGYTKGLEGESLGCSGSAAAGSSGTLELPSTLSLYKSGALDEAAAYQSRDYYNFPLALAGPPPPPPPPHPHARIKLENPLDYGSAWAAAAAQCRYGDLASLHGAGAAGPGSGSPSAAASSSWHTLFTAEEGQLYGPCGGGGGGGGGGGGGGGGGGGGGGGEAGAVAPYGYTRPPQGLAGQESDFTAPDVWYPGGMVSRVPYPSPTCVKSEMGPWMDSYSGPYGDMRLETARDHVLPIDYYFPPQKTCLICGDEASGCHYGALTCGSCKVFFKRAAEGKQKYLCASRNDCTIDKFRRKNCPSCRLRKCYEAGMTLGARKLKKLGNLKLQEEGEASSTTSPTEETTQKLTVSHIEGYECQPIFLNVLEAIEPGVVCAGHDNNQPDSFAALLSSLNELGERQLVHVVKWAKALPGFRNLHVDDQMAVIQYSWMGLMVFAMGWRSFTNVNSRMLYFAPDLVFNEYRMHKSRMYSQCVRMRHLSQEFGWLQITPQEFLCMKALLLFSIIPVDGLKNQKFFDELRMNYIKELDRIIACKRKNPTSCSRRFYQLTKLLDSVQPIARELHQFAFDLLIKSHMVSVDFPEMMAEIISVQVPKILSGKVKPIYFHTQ
Protocol: Degradation of Androgen Receptor protein in human LnCaP cells treated with PROTACs was quantified using the Nano-Glo® HiBiT Lytic Detection System (Promega) in 384 well assay plate format. A clonal LnCaP derived cell line was first established in which the AR gene was modified, using CRISPR/Cas9 editing, so the expressed AR protein included an 11 amino acid HiBiT tag at its amino-terminus. 10 mM DMSO stock solutions of PROTACs were prepared and diluted across an 11 concentration, 3 fold increment range, and 25 nL dispensed into a white opaque bottomed 384 well assay plate (Thermofisher) using an acoustic ECHO dispenser (Labcyte). Cells were grown in cell culture medium (RPMI 1640 supplemented with 15% FBS, penicillin 50U/mL and streptomycin 50 ug/mL (Thermofisher)). For the assay, cells were detached from flask and resuspended with assay medium (FluoroBrite™ DMEM supplemented with 10% heat inactivated FBS, penicillin 50U/mL and streptomycin 50 ug/mL (Thermofisher)). The cell suspension was centrifuged at 400 g for 5 min and the pellet resuspended in assay medium. 25 μL of cell suspension containing 10,000 cells was dispensed into each well of the assay plate containing a serial dilution of test compounds, which was then incubated for 18 h at 37° C./5% CO2. Control wells were included on each assay plate, with assay medium without cells being the no AR remaining 100% effect control, and cells treated with DMSO vehicle only, without PROTAC, the 0% effect control. 25 μL of Nano-Glo® HiBiT lysis buffer supplemented with LgBiT protein and Nano-Glo® substrate (Promega) was added to each well and the plate shaken at 500 rpm for 10 min at room temperature. The intensity of luminescence was measured using a PHERAstar microplate reader (BMG Labtech) and the % AR protein remaining in each well calculated by normalising the raw luminescence value to the above control wells. Parameters corresponding to the potency and efficacy estimates of the PROTACs were obtained from these normalised luminescence values using software (IDBS ActivityBase). These included the DC50 (concentration at which 50% of protein was degraded in M) and the Dmax (maximal degradation, in %) estimates. Two versions of the DC50, called relative DC50 and absolute DC50, were generated. These are the inflection point of a fitted 4 parameter sigmoidal response curve and the interpolated concentration of PROTAC corresponding to 50% of the protein being degraded, respectively. The corresponding pDC50 is reported as −log10(relative […]). The Dmax parameter was the maximum experimentally observed degradation and the asymptote max parameter the fitted response curve asymptote maximum.

Dmax, ≥ 50%:
CC1(C)[C@H](NC(=O)c2ccc(N3CCC(CN4CCC(n5ncc6c(N7CCC(=O)NC7=O)cccc65)CC4)CC3)c(F)c2)C(C)(C)[C@H]1Oc1ccc(C#N)c2c1CCCO2 [Example 8, N-((1r,3r)-3-((8-Cyanochroman-5-yl)oxy)-2,2,4,4-tetramethylcyclobutyl)-4-(4-((4-(4-(2,4-dioxotetrahydropyrimidin-1(2H)-yl)-1H-indazol-1-yl)piperidin-1-yl)methyl)piperidin-1-yl)-3-fluorobenzamide]
CC1(C)[C@H](NC(=O)c2ccc(N3CCC(CN4CCC(n5ccc6c(N7CCC(=O)NC7=O)ncnc65)CC4)CC3)cc2)C(C)(C)[C@H]1Oc1ccc(C#N)c2ncccc12 [Example 28, N-((1r,3r)-3-((8-Cyanoquinolin-5-yl)oxy)-2,2,4,4-tetramethylcyclobutyl)-4-(4-((4-(4-(2,4-dioxotetrahydropyrimidin-1(2H)-yl)-7H-pyrrolo[2,3-d]pyrimidin-7-yl)piperidin-1-yl)methyl)piperidin-1-yl)benzamide]
CC1(C)[C@H](NC(=O)c2ccc(N3CCC(O)(CN4CCC(n5ncc6c(N7CCC(=O)NC7=O)cccc65)CC4)CC3)c(F)c2)C(C)(C)[C@H]1Oc1ccc(C#N)c2ncccc12 [Example 48, N-((1r,3r)-3-((8-Cyanoquinolin-5-yl)oxy)-2,2,4,4-tetramethylcyclobutyl)-4-(4-((4-(4-(2,4-dioxotetrahydropyrimidin-1(2H)-yl)-1H-indazol-1-yl)piperidin-1-yl)methyl)-4-hydroxypiperidin-1-yl)-3-fluorobenzamide]
CC1(C)[C@H](NC(=O)c2ccc(N3CCC(CN4CCC(n5ccc6c(N7CCC(=O)NC7=O)cccc65)CC4)CC3)c(F)c2)C(C)(C)[C@H]1Oc1ccc(C#N)c2ncccc12 [Example 31, N-((1r,3r)-3-((8-Cyanoquinolin-5-yl)oxy)-2,2,4,4-tetramethylcyclobutyl)-4-(4-((4-(4-(2,4-dioxotetrahydropyrimidin-1(2H)-yl)-1H-indol-1-yl)piperidin-1-yl)methyl)piperidin-1-yl)-3-fluorobenzamide]
CC1(C)[C@H](NC(=O)c2ccc(N3CCC(CN4CCC(n5ncc6c(N7CCC(=O)NC7=O)cc(C(F)(F)F)cc65)CC4)CC3)c(F)c2)C(C)(C)[C@H]1Oc1ccc(C#N)c2ncccc12 [Example 42, N-((1r,3r)-3-((8-Cyanoquinolin-5-yl)oxy)-2,2,4,4-tetramethylcyclobutyl)-4-(4-((4-(4-(2,4-dioxotetrahydropyrimidin-1(2H)-yl)-6-(trifluoromethyl)-1H-indazol-1-yl)piperidin-1-yl)methyl)piperidin-1-yl)-3-fluorobenzamide]
CC1(C)[C@H](NC(=O)c2ccc(N3CCC(CN4CCC(n5ccc6c(N7CCC(=O)NC7=O)cc(F)cc65)CC4)CC3)c(F)c2)C(C)(C)[C@H]1Oc1ccc(C#N)c2ncccc12 [Example 32, N-((1r,3r)-3-((8-Cyanoquinolin-5-yl)oxy)-2,2,4,4-tetramethylcyclobutyl)-4-(4-((4-(4-(2,4-dioxotetrahydropyrimidin-1(2H)-yl)-6-fluoro-1H-indol-1-yl)piperidin-1-yl)methyl)piperidin-1-yl)-3-fluorobenzamide]
CC1(C)[C@H](NC(=O)c2ccc(N3CCC(CN4CCC(n5ncc6c(N7CCC(=O)NC7=O)cc(Cl)cc65)CC4)CC3)c(F)c2)C(C)(C)[C@H]1Oc1ccc(C#N)c2ncccc12 [Example 41, 4-(4-((4-(6-Chloro-4-(2,4-dioxotetrahydropyrimidin-1(2H)-yl)-1H-indazol-1-yl)piperidin-1-yl)methyl)piperidin-1-yl)-/-((1r,3r)-3-((8-cyanoquinolin-5-yl)oxy)-2,2,4,4-tetramethylcyclobutyl)-3-fluorobenzamide]
